Measured values as given in paper PMC5830615 (Scientific Reports, 2018).

Experiments:
[1] = system: soluble adenylyl cyclase (sAC); experiment: FRET assay of soluble adenylyl cyclase activity in HEK293-sAC cells transduced with H188; type: cell-based
Experimental: These actions of Rp-8-Br-cAMPS-pAB were not reproduced by the negative control 4-acetoxybenzy alcohol (4-Abn-OH) that lacks the cAMP moiety (Fig. 3e1,e2)[36].
HEK293-H188-C24 cells stably expressing H188 were plated at 80% confluence on 96-well clear-bottom assay plates (Costar 3904, Corning, NY) coated with rat tail collagen (Collaborative Biomedical Products, Bedford, MA). HEK293 cells stably expressing select GPCRs were transduced for 16 hours with H188 virus at a density of ca. 60,000 cells/well under conditions in which the multiplicity of infection (m.o.i.) was equivalent to 25 viral particles per cell. For all assays, the culture media was then removed and replaced by 200 μl/well of a standard extracellular saline (SES) solution supplemented with 11 mM glucose and 0.1% BSA[31],[34]–[36]. The composition of the SES was (in mM): 138 NaCl, 5.6 KCl, 2.6 CaCl2, 1.2 MgCl2, 11.1 glucose, and 10 Hepes (295 mOsmol, pH 7.4). Real-time kinetic assays of FRET were performed using a FlexStation 3 microplate reader equipped with monochromators (Molecular Devices, Sunnyvale, CA). Excitation light was delivered at 435/9 nm (455 nm cut-off), and emitted light was detected at 485/15 nm (CFP) or 535/15 nm (YFP)[31],[34]–[36]. […] The 485/535 emission ratio was calculated for each well and the mean +/− s.d. values for 12 wells were averaged. […]

human GLP-1R = experiment: FRET cAMP assay in HEK293-GLP-1R cells (stable human GLP-1R) virally transduced with H188; type: cell-based; settings: HEK293-GLP-1R cells transduced with H188
Experimental: (§1) HEK293-H188-C24 cells stably expressing H188 were plated at 80% confluence on 96-well clear-bottom assay plates (Costar 3904, Corning, NY) coated with rat tail collagen (Collaborative Biomedical Products, Bedford, MA). HEK293 cells stably expressing select GPCRs were transduced for 16 hours with H188 virus at a density of ca. 60,000 cells/well under conditions in which the multiplicity of infection (m.o.i.) was equivalent to 25 viral particles per cell. For all assays, the culture media was then removed and replaced by 200 μl/well of a standard extracellular saline (SES) solution supplemented with 11 mM glucose and 0.1% BSA[31],[34]–[36]. The composition of the SES was (in mM): 138 NaCl, 5.6 KCl, 2.6 CaCl2, 1.2 MgCl2, 11.1 glucose, and 10 Hepes (295 mOsmol, pH 7.4). Real-time kinetic assays of FRET were performed using a FlexStation 3 microplate reader equipped with monochromators (Molecular Devices, Sunnyvale, CA). Excitation light was delivered at 435/9 nm (455 nm cut-off), and emitted light was detected at 485/15 nm (CFP) or 535/15 nm (YFP)[31],[34]–[36]. The emission intensities were the averages of 12 excitation flashes for each time point per well.

wild-type HEK293 cells = experiment: FRET cAMP assay in wild-type HEK293 cells transduced with H188 (negative control); type: cell-based, human; settings: WT HEK293 lacking recombinant receptors, H188 virus; IBMX at 50 μM
Experimental: as §1

[2] = system: H188 (Epac1-based cAMP biosensor); experiment: FRET response of biosensor H188 to cAMP analogs and Epac inhibitors in HEK293-H188-C24 cells; type: cell-based
Description: (§2) H188 contains the cAMP sensor Epac1 in which the full-length protein is truncated to remove the Disheveled, Egl-10, and Pleckstrin (DEP) membrane-targeting domain so that its expression is confined largely to the cytoplasm (Fig. 2a,b)[30]. T781A and F782A mutations introduced within the CDC25 homology domain disrupt guanine nucleotide exchange factor (GEF) activity so that binding of cAMP to H188 is not linked to downstream signaling events mediated by the Epac1 effector protein Rap1 GTPase (Fig. 2a)[30]. In H188 the Epac1 backbone is flanked by an mTurquoise2Δ FRET donor chromophore at the N-terminus, and tandem cp173 Venus-Venus FRET acceptor chromophores at the C-terminus (Fig. 2a). Binding of cAMP reduces FRET so that when exciting with 440 nm light, there is an increase of 485 nm (mTuquoise2Δ) and a decrease of 535 nm (cp173 Venus-Venus) emission fluorescence. This ΔFRET is measured as an increase of the 485/535 nm FRET ratio.
HEK293-H188-C24 cells stably expressing H188 were plated at 80% confluence on 96-well clear-bottom assay plates (Costar 3904, Corning, NY) coated with rat tail collagen (Collaborative Biomedical Products, Bedford, MA). HEK293 cells stably expressing select GPCRs were transduced for 16 hours with H188 virus at a density of ca. 60,000 cells/well under conditions in which the multiplicity of infection (m.o.i.) was equivalent to 25 viral particles per cell. For all assays, the culture media was then removed and replaced by 200 μl/well of a standard extracellular saline (SES) solution supplemented with 11 mM glucose and 0.1% BSA[31],[34]–[36]. The composition of the SES was (in mM): 138 NaCl, 5.6 KCl, 2.6 CaCl2, 1.2 MgCl2, 11.1 glucose, and 10 Hepes (295 mOsmol, pH 7.4). Real-time kinetic assays of FRET were performed using a FlexStation 3 microplate reader equipped with monochromators (Molecular Devices, Sunnyvale, CA). Excitation light was delivered at 435/9 nm (455 nm cut-off), and emitted light was detected at 485/15 nm (CFP) or 535/15 nm (YFP)[31],[34]–[36]. The emission intensities were the averages of 12 excitation flashes for each time point per well. Test solutions dissolved in SES were placed in V-bottom 96-well plates (Greiner Bio-One, Monroe, NC), and an automated pipetting procedure was used to transfer 50 μl of each test solution to each well of the assay plate containing monolayers of these cells. The 485/535 emission ratio was calculated for each well and the mean +/− s.d. values for 12 wells were averaged. To facilitate comparisons amongst different experiments, these FRET ratio values were normalized using baseline subtraction so that a y-axis value of 1 corresponds to the initial baseline FRET ratio, whereas a value of 2 corresponds to a doubling of the FRET ratio. The time course of the ΔFRET ratio was plotted after exporting data to Origin 8.0 (OriginLab, Northampton, MA). Origin 8.0 was also used for generation of Hill plots describing dose-response relationships.

[3] = system: HEK293-H188-C24 cells (cAMP production); experiment: High-throughput FRET assay of cAMP, forskolin in HEK293-H188-C24 cells; type: cell-based; settings: Homo sapiens; HEK293-H188-C24 monolayers, 96-well microplate reader, 485/535 nm FRET ratio; read-out: EC50 of forskolin for H188 ΔFRET (sensitivity)
Description: as §2
HEK293-H188-C24 cells stably expressing H188 were plated at 80% confluence on 96-well clear-bottom assay plates (Costar 3904, Corning, NY) coated with rat tail collagen (Collaborative Biomedical Products, Bedford, MA). […] Real-time kinetic assays of FRET were performed using a FlexStation 3 microplate reader equipped with monochromators (Molecular Devices, Sunnyvale, CA). […]

rat GIP receptor = experiment: FRET cAMP assay in HEK293 cells stably expressing GIP receptor, transduced with H188; type: cell-based; settings: GIP 3 nM
Experimental: as §1

rat glucagon receptor = experiment: FRET cAMP assay in HEK293 cells stably expressing glucagon receptor, transduced with H188; type: cell-based; settings: Glucagon 3 nM
Experimental: as §1

## CC(C)Cn1c(=O)n(C)c(=O)c2[nH]cnc21 [IBMX, isobutylmethylxanthine]
[1]; IBMX 50 μM, H188 by viral transduction
  Effect on levels of cAMP in HEK293-sAC cells: raised levels of cAMP
Human GLP-1R
  Effect on the cAMP-elevating action of GLP-1: potentiated the action of GLP-1
wild-type HEK293 cells
  Effect on levels of cAMP in wild-type HEK293 cells: failed to raise levels of cAMP

## Nc1nc(Cl)cc(N(Cc2ccsc2)C2CC2)n1 [LRE1]
[1]; LRE1 50 μM versus IBMX 50 μM
  Effect on IBMX-induced rise of cAMP in HEK293-sAC cells: blocked

## Cl.c1ccc(C2CCCC2NC2=NCCCCCCCCCCC2)cc1 (stereo not shown) [MDL-12,330 A]
Human GLP-1R
  Effect on the cAMP-elevating action of GLP-1: suppressed the action of GLP-1

## CC(=O)Oc1ccc(CSP2(=O)OC[C@H]3O[C@@H](n4c(Br)nc5c(N)ncnc54)[C@H](O)[C@@H]3O2)cc1 (stereo partly shown) [Rp-8-Br-cAMPS-pAB]
[2]
  Effect on baseline FRET ratio when administered alone: weak partial agonist effect
  Effect on ΔFRET measured in response to forskolin: inhibited the ΔFRET

## C=C[C@@]1(C)CC(=O)[C@]2(O)[C@@]3(C)[C@@H](O)CCC(C)(C)[C@@H]3[C@H](O)[C@H](OC(C)=O)[C@@]2(C)O1 [forskolin]
[3]
  EC50: 0.5 µM

## gastric inhibitory polypeptide (YAEGTFISDYSIAMDKIHQQDFVNWLLAQKGKKNDWKHNITQ) [GIP, hormone]
Rat GIP receptor
  Effect on cAMP at GIP receptor, 3 nM: did raise levels of cAMP

## glucagon
Rat glucagon receptor
  Effect on cAMP at glucagon receptor, 3 nM: did raise levels of cAMP
